Results on 31 molecules are retold here after patent publication US9102614B2, “Naphth-2-ylacetic acid derivatives to treat AIDS” (Gilead Sciences, Inc., priority 2010, dated 2015).

Molecules are shown by their SMILES.

A word on the EC50: it is the concentration giving half of the maximal effect.

In one assay the test system is HIV-IIIb. Kind of assay: Test A: Antiviral Assays in MT4 Cells. It counts as cell-based. The note with it: Human immunodeficiency virus 1, IIIB, MT4, 120 h, MT-4 cells infected with HIV-IIIb (0.004 m.o.i.), 5 days of incubation, CellTiter-Glo chemiluminescence readout; read-out: EC50. The protocol:
Test A: Antiviral Assays in MT4 Cells
For the antiviral assay utilizing MT-4 cells, 0.4 μL of […] test concentration of 3-fold serially diluted compound in DMSO was added to 40 μL of cell growth medium (RPMI 1640, 10% FBS, 1% penicillin/Streptomycin, 1% L-Glutamine, 1% HEPES) in each well of 384-well assay plates (10 concentrations) in quadruplicate.
1 mL aliquots of 2×10e6 MT-4 cells are pre-infected for 1 and 3 hrs respectively, @37° C. with 25 μL (MT4) or of either cell growth medium (mock-infected) or a fresh 1:250 dilution of an HIV-IIIb concentrated ABI stock (0.004 m.o.i. for MT4 cells). Infected and uninfected cells are diluted in cell growth medium and 35 uL of 2000 (for MT4) cells is added to each well of the assay plates.
Assay plates were then incubated in a 37° C. incubator. After 5 days of incubation, 25 μl of 2× concentrated CellTiter-Glo™ Reagent (catalog #G7573, Promega Biosciences, Inc., Madison, Wis.) was added to each well of the assay plate. Cell lysis was carried out by incubating at room temperature for 2-3 min and then chemiluminescence was read using the Envision reader (PerkinElmer).
In general terms: Cellular ATP, detected with luciferase, serves as a proxy for viable cell number.
As to `COC(=O)NC(C)(C)C#Cc1ccc2cc(C)c(C(OC(C)(C)C)C(=O)O)c(-c3ccc(Cl)cc3)c2c1` (stereo not shown) [Compound 97, 2-tert-Butoxy-2-(1-(4-chlorophenyl)-7-(3-(methoxycarbonylamino)-3-methylbut-1-ynyl)-3-methylnaphthalen-2-yl)acetic acid], the EC50 is 300 nM.
Still for that read-out and setting: with `Cc1cc2ccc(C#CC(C)(C)N)cc2c(-c2ccc3c4c(ccnc24)CCO3)c1C(OC(C)(C)C)C(=O)O` (stereo not shown) [Compound 176] the figure was 12000 nM.
On the same count and under the same terms, for `C=Cc1cc2ccccc2c(-c2ccc(Cl)cc2)c1[C@H](OC(C)(C)C)C(=O)O` [Compound 29A, (S)-2-tert-Butoxy-2-(1-(4-chlorophenyl)-3-vinylnaphthalen-2-yl)acetic acid] the value was 130 nM; for `Cc1cc2ccc(C#CC(C)(O)c3ccccc3)cc2c(-c2ccc(Cl)cc2)c1C(OC(C)(C)C)C(=O)O` (stereo not shown) [Compound 88, 2-tert-Butoxy-2-(1-(4-chlorophenyl)-7-(3-hydroxy-3-phenylbut-1-ynyl)-3-methylnaphthalen-2-yl)acetic acid], 24 nM.
The same measure, in the same setting: with `Cc1cc2cc(Cl)c(F)cc2c(-c2ccc3c4c(ccnc24)CCO3)c1[C@H](OC(C)(C)C)C(=O)O` (atropisomer, axis not shown) [Compound 171] the figure was 36000 nM.
As for `Cc1ccc2c(-c3ccc(Cl)cc3)c(C(OC(C)(C)C)C(=O)O)c(C)cc2c1` (stereo not shown) [Compound 58, 2-tert-Butoxy-2-(1-(4-chlorophenyl)-3,6-dimethylnaphthalen-2-yl)acetic acid], the EC50 is 42 nM.
Still for that read-out and setting: with `Cc1cc2ccccc2c(-c2cnc3ccccc3c2)c1[C@H](OC(C)(C)C)C(=O)O` [Compound 16, (S)-2-tert-Butoxy-2-(3-methyl-1-(quinolin-3-yl)naphthalen-2-yl)acetic acid] the figure was 7000 nM; with `Cc1ccc2cc(C)c(C(OC(C)(C)C)C(=O)O)c(-c3ccc(Cl)cc3)c2c1` (stereo not shown) [Compound 78, 2-tert-Butoxy-2-(1-(4-chlorophenyl)-3,7-dimethylnaphthalen-2-yl)acetic acid], 300 nM.
Still for that read-out and setting: with `Cc1ccc2ccc(F)c(-c3c([C@H](OC(C)(C)C)C(=O)O)c(C)cc4ccccc34)c2n1` [Compound 17, (S)-2-(tert-Butoxy)-2-((S)-1-(7-fluoro-2-methylquinolin-8-yl)-3-methylnaphthalen-2-yl)acetic acid] the figure was 7700 nM; with `Cc1cc2ccccc2c(C2=CCCCC2)c1[C@H](OC(C)(C)C)C(=O)O` [Compound 8, (S)-2-tert-Butoxy-2-(1-cyclohexenyl-3-methylnaphthalen-2-yl)acetic acid], 25 nM; with `Cc1cc2ccc(Cl)cc2c(-c2ccc3c4c(ccnc24)CCO3)c1[C@H](OC(C)(C)C)C(=O)O` (atropisomer, axis not shown) [Compound 180], 29000 nM.
With `Cc1c([C@H](OC(C)(C)C)C(=O)O)c(-c2ccc3c4c(ccnc24)CCO3)c2ccccc2c1C(N)=O` [Compound 183, (S)-2-tert-butoxy-2-((R)-4-carbamoyl-1-(2,3-dihydropyrano[4,3,2-de]quinolin-7-yl)-3-methylnaphthalen-2-yl)acetic acid], the EC50 worked out at 351 nM.
Same read-out and setting: with `Cc1c([C@H](OC(C)(C)C)C(=O)O)c(-c2ccc(Cl)cc2)c2ccccc2c1Br` [Compound 150B, (S)-2-(4-bromo-1-(4-chlorophenyl)-3-methylnaphthalen-2-yl)-2-tert-butoxyacetic acid] the figure was 260 nM; with `Cc1cc2ccc(C#CC(C)(C)N)cc2c(-c2ccc(Cl)cc2)c1[C@H](OC(C)(C)C)C(=O)O` [Compound 98, (S)-2-(7-(3-Amino-3-methylbut-1-ynyl)-1-(4-chlorophenyl)-3-methylnaphthalen-2-yl)-2-tert-butoxyacetic acid], 10 nM; with `Cc1cc2ccccc2c(-c2ccc3c4c2N(C)CCC4CCO3)c1[C@H](OC(C)(C)C)C(=O)O` (stereo partly drawn) [Compound 22, (2S)-2-tert-Butoxy-2-(3-methyl-1-((7R)-6-methyl-2,3,3a,4,5,6-hexahydropyrano[4,3,2-de]quinolin-7-yl)naphthalen-2-yl)acetic acid], 540 nM.
As to `Cc1cc2c(-c3ccc(Cl)cc3)cccc2c(-c2ccc(Cl)cc2)c1C(OC(C)(C)C)C(=O)O` (stereo not shown) [Compound 38, 2-(1,5-Bis(4-chlorophenyl)-3-methylnaphthalen-2-yl)-2-tert-butoxyacetic acid], the EC50 came out at 3400 nM.
On to `COc1cccc2c(-c3ccc(Cl)cc3)c(C(OC(C)(C)C)C(=O)O)c(C)cc12` (stereo not shown) [Compound 34, tert-Butoxy-[1-(4-chloro-phenyl)-5-methoxy-3-methyl-naphthalen-2-yl]-acetic acid], for which the EC50 amounted to 350 nM.
On the same count and under the same terms, with `CCc1ccc2cc(C)c(C(OC(C)(C)C)C(=O)O)c(-c3ccc(Cl)cc3)c2c1` (stereo not shown) [Compound 93, 2-tert-Butoxy-2-(1-(4-chlorophenyl)-7-ethyl-3-methylnaphthalen-2-yl)acetic acid] the figure was 86 nM; with `CCc1ccc2c(-c3ccc4c5c(ccnc35)CCO4)c([C@H](OC(C)(C)C)C(=O)O)c(C)cc2c1F` (atropisomer, axis not shown) [Compound 120, (S)-2-tert-Butoxy-2-((R)-1-(2,3-dihydropyrano[4,3,2-de]quinolin-7-yl)-6-ethyl-5-fluoro-3-methylnaphthalen-2-yl)acetic acid], 32 nM.

Still in this assay, the particulars now being: MT-4 cells infected with HIV-IIIb (0.004 m.o.i.), 5 days of incubation, CellTiter-Glo chemiluminescence readout; read-out: EC50.
`Cc1cc2cc(Cl)ccc2c(-c2ccc3c4c(ccnc24)CCO3)c1[C@H](OC(C)(C)C)C(=O)O` [Compound 68A, (S)-2-tert-Butoxy-2-((R)-6-chloro-1-(2,3-dihydropyrano[4,3,2-de]quinolin-7-yl)-3-methylnaphthalen-2-yl)acetic acid]: the EC50 was 14 nM.
On the same count and under the same terms, with `Cc1cc2c(Cl)cccc2c(-c2ccc3c4c(ccnc24)CCO3)c1C(OC(C)(C)C)C(=O)O` (stereo not shown) [Compound 163] the figure was 16000 nM; with `Cc1cc2c(C)c(C)ccc2c(-c2ccc3c4c(ccnc24)CCO3)c1[C@H](OC(C)(C)C)C(=O)O` [Compound 117, (S)-2-tert-Butoxy-2-((R)-1-(2,3-dihydropyrano[4,3,2-de]quinolin-7-yl)-3,5,6-trimethylnaphthalen-2-yl)acetic acid], 11 nM; with `Cc1cc2c(C(N)=O)cc(F)cc2c(-c2ccc3c4c(ccnc24)CCO3)c1[C@H](OC(C)(C)C)C(=O)O` [Compound 113B, (S)-2-tert-Butoxy-2-((R)-5-carbamoyl-1-(2,3-dihydropyrano[4,3,2-de]quinolin-7-yl)-7-fluoro-3-methylnaphthalen-2-yl)acetic acid], 460 nM.
The same measure, in the same setting: with `Cc1cc2c(F)c(Cl)ccc2c(-c2ccc3c4c(ccnc24)CCO3)c1[C@H](OC(C)(C)C)C(=O)O` [Compound 115, (S)-2-tert-Butoxy-2-((R)-6-chloro-1-(2,3-dihydropyrano[4,3,2-de]quinolin-7-yl)-5-fluoro-3-methylnaphthalen-2-yl)acetic acid] the figure was 37 nM.
Consider `Cc1cc2ccccc2c(-c2ccc(C(F)(F)F)c3cccnc23)c1[C@H](OC(C)(C)C)C(=O)O` [Compound 7D, (S)-2-tert-butoxy-2-((R)-3-methyl-1-(5-(trifluoromethyl)quinolin-8-yl)naphthalen-2-yl)acetic acid], for which the EC50 turned out to be 1700 nM.
Same read-out and setting: with `Cc1cc2cc(C(N)=O)c(F)cc2c(-c2ccc3c4c(ccnc24)CCO3)c1[C@H](OC(C)(C)C)C(=O)O` [Compound 106B, (S)-2-tert-Butoxy-2-((R)-6-carbamoyl-1-(2,3-dihydropyrano[4,3,2-de]quinolin-7-yl)-7-fluoro-3-methylnaphthalen-2-yl)acetic acid] the figure was 91 nM.
On to `CCC(C)(C)O[C@H](C(=O)O)c1c(C)cc2ccccc2c1-c1ccc2c3c(ccnc13)CCO2` [Compound 185, (S)-2-((R)-1-(2,3-dihydropyrano[4,3,2-de]quinolin-7-yl)-3-methylnaphthalen-2-yl)-2-(tert-pentyloxy)acetic acid], for which the EC50 was 24 nM.
On the same count and under the same terms, with `Cc1cc2ccccc2c(-c2ccc3c4c(cc[n+]([O-])c24)CCO3)c1[C@H](OC(C)(C)C)C(=O)O` [Compound 23, 7-((R)-2-((S)-tert-Butoxy(carboxy)methyl)-3-methylnaphthalen-1-yl)-2,3-dihydropyrano[4,3,2-de]quinoline 6-oxide] the figure was 24 nM; with `CNC(=O)c1cc2cc(C)c([C@H](OC(C)(C)C)C(=O)O)c(-c3ccc4c5c(ccnc35)CCO4)c2cc1F` [Compound 107, (S)-2-tert-Butoxy-2-((R)-1-(2,3-dihydropyrano[4,3,2-de]quinolin-7-yl)-7-fluoro-3-methyl-6-(methylcarbamoyl)naphthalen-2-yl)acetic acid], 92 nM; with `Cc1cc2c(-c3cncnc3)cc(F)cc2c(-c2ccc3c4c(ccnc24)CCO3)c1[C@H](OC(C)(C)C)C(=O)O` [Compound 114, (S)-2-tert-butoxy-2-((R)-1-(2,3-dihydropyrano[4,3,2-de]quinolin-7-yl)-7-fluoro-3-methyl-5-(pyrimidin-5-yl)naphthalen-2-yl)acetic acid], 1900 nM.
Consider `Cc1cc2ccccc2c(-c2ccc3c4c(ccnc24)CCO3)c1[C@H](OC(C)(C)C)C(=O)O` [Compound 5K, (S)-2-tert-Butoxy-2-((S)-1-(2,3-dihydropyrano[4,3,2-de]quinolin-7-yl)-3-methylnaphthalen-2-yl)acetic acid], for which the EC50 amounted to 4600 nM.
